Converted amounts (≈) assume the structure as drawn.
Columns and labels:
Influenza B/Harbin/7/95 = type: cell-based; conditions: concentration that inhibited CPE by 50%; MDCK cells, up to 72 hours, MTT
Influenza A/Sydney/5/97 = type: cell-based; conditions: concentration that inhibited CPE by 50%; MDCK cells, up to 72 hours, MTT
[1] = tested on: A/Panama/2007/99 BVLV008 (H3N2); assay: Plaque reduction assay (PRA) in MDCK cells; type: cell-based, influenza A H3N2; conditions: Influenza A virus, H3N2, MDCK, reduces plaque numbers by 50%; A/Panama/2007/99 (H3N2); read-out: EC50 PRA A/Pan
Method: (§1) Madin Darby Canine Kidney (MDCK) cells are seeded into six well tissue culture plates and grown to confluency via standard methods. Influenza viruses are diluted in a minimal volume of phosphate buffered saline supplemented with 0.2% bovine serum albumin to yield an estimated titre of 50–100 plaque forming units (pfu) per well. After adsorption to the MDCK cells for one hour at 37° C. in a 5% CO2 atmosphere the viral inocula is aspirated and replaced with viral growth media (minimal Eagle's media supplemented with BSA, trypsin and insulin/transferrin/selenium at optimal concentrations) containing sufficient agar or agarose (generally 1–2%) to cause the media to gel at room temperature and at 37° C. in a 5% CO2 atmosphere until plaques develop (generally 2–4 days). Plaques can be visualised with a suitable stain (e.g. 0.4% crystal violet in formal saline) before counting.

[2] = tested on: A/Victoria/3/75 BVLV017 (H3N2); assay: Plaque reduction assay (PRA) in MDCK cells; type: cell-based, influenza A H3N2; conditions: Influenza A virus, MDCK; reduces plaque numbers by 50%; A/Victoria/3/75 (H3N2); read-out: EC50 PRA A/Vic
Method: as §1

B/Hong Kong/5/72 BVLV012 = assay: Plaque reduction assay (PRA) in MDCK cells; type: cell-based, influenza B; conditions: Influenza B virus, MDCK, read-out: EC50 PRA B/HongK
Method: as §1

[3] = tested on: B/Yamanashi/166/98 BVLV007; assay: Plaque reduction assay (PRA) in MDCK cells; type: cell-based, influenza B; conditions: Influenza B virus, MDCK, read-out: EC50 PRA B/Yam, reduces plaque numbers by 50%; B/Yamanashi/166/98
Method: as §1

[4] = tested on: A/New Caledonia/20/99 BVLV008 (H1N1); assay: Plaque reduction assay (PRA) in MDCK cells; type: cell-based, influenza A H1N1; conditions: Influenza A virus, H1N1, MDCK, reduces plaque numbers by 50%; A/New Caledonia/20/99 (H1N1)
Method: as §1

SMILES | ID50 B/Harbin/7/95 (Influenza B/Harbin/7/95) | ID50 A/Sydney/5/97 (Influenza A/Sydney/5/97) | other results
CC(=O)N[C@H]1[C@H]([C@H](OC(=O)NCCCCCCNC(=O)c2ccccc2C(=O)NCCCCCCNC(=O)O[C@@H]([C@@H]2OC(C(=O)O)=C[C@H](NC(=N)N)[C@H]2NC(C)=O)[C@H](O)CO)[C@H](O)CO)OC(C(=O)O)=C[C@@H]1NC(=N)N [Compound 7] | 0.8 ng/mL (≈ 0.741 nM) | 0.7 ng/mL (≈ 0.649 nM) | –
CC(=O)N[C@H]1[C@H]([C@H](OC(=O)NCCCCCCNC(=O)c2cccc(C(=O)NCCCCCCNC(=O)O[C@@H]([C@@H]3OC(C(=O)O)=C[C@H](NC(=N)N)[C@H]3NC(C)=O)[C@H](O)CO)c2)[C@H](O)CO)OC(C(=O)O)=C[C@@H]1NC(=N)N [Compound 8] | 0.9 ng/mL (≈ 0.834 nM) | 0.4 ng/mL (≈ 0.371 nM) | –
CC(=O)N[C@H]1[C@H]([C@H](OC(=O)NCCCNC(=O)c2cc(C(=O)O)cc(C(=O)NCCCNC(=O)O[C@@H]([C@@H]3OC(C(=O)O)=C[C@H](NC(=N)N)[C@H]3NC(C)=O)[C@H](O)CO)c2)[C@H](O)CO)OC(C(=O)O)=C[C@@H]1NC(=N)N [Compound 9] | 0.3 ng/mL (≈ 0.289 nM) | 0.1 ng/mL (≈ 0.0962 nM) | –
CC(=O)N[C@H]1[C@H]([C@H](OC(=O)NCCCNC(=O)c2cccc(C(=O)NCCCNC(=O)O[C@@H]([C@@H]3OC(C(=O)O)=C[C@H](NC(=N)N)[C@H]3NC(C)=O)[C@H](O)CO)c2)[C@H](O)CO)OC(C(=O)O)=C[C@@H]1NC(=N)N [Compound 11] | 0.1 ng/mL (≈ 0.101 nM) | 0.1 ng/mL (≈ 0.101 nM) | –
CC(=O)N[C@H]1[C@H]([C@H](OC(=O)NCCCNC(=O)c2ccccc2C(=O)NCCCNC(=O)O[C@@H]([C@@H]2OC(C(=O)O)=C[C@H](NC(=N)N)[C@H]2NC(C)=O)[C@H](O)CO)[C@H](O)CO)OC(C(=O)O)=C[C@@H]1NC(=N)N [Compound 12] | 0.1 ng/mL (≈ 0.101 nM) | >100 ng/mL | –
CC(=O)N[C@H]1[C@H]([C@H](OC(=O)NCCCNC(=O)Cc2ccc(CC(=O)NCCCNC(=O)O[C@@H]([C@@H]3OC(C(=O)O)=C[C@H](NC(=N)N)[C@H]3NC(C)=O)[C@H](O)CO)cc2)[C@H](O)CO)OC(C(=O)O)=C[C@@H]1NC(=N)N [Compound 13] | 0.3 ng/mL (≈ 0.293 nM) | 0.1 ng/mL (≈ 0.0977 nM) | –
CC(=O)N[C@H]1[C@H]([C@H](OC(=O)NCCCNC(=O)Cc2ccccc2CC(=O)NCCCNC(=O)O[C@@H]([C@@H]2OC(C(=O)O)=C[C@H](NC(=N)N)[C@H]2NC(C)=O)[C@H](O)CO)[C@H](O)CO)OC(C(=O)O)=C[C@@H]1NC(=N)N [Compound 14] | 0.3 ng/mL (≈ 0.293 nM) | 0.2 ng/mL (≈ 0.195 nM) | –
CCOC(=O)C1=C[C@@H](OC(CC)CC)[C@H](NC(C)=O)[C@@H](N)C1 [Oseltamivir] | – | – | EC50 [1]: 0.3 ng/mL (≈ 0.96 nM); EC50 [2]: 0.11 ng/mL (≈ 0.352 nM); EC50 (B/Hong Kong/5/72 BVLV012): 32 ng/mL (≈ 102 nM); EC50 [3]: 0.7 ng/mL (≈ 2.24 nM); EC50 [4]: 0.23 ng/mL (≈ 0.736 nM)

Source: patent publication US7157494B2, “Dimeric compounds and their use as anti-viral agents” (priority 2001, dated 2007)
